Laboratory results from patent US5591741A, “Fungicidal spiroheterocyclic derivatives” (American Cyanamid Company, priority 1993, dated 1997).

Assays:
Venturia inaequalis = experiment: Activity against apple scab in-vitro (VII); format: cell-based; conditions: 10 ppm, 10 days, 20° C., mycelial growth
Protocol: (j) Activity against apple scab in-vitro (Venturia inaequalis: VII) This test measures the in-vitro activity of compounds against V. inaequalis that causes apple scab. The test compound in acetone is added into 4 ml aliquots of half strength Potato Dextrose Broth dispensed in 25-compartment petri dishes to give final concentrations of 10 ppm. The fungal inoculum consists of mycelial fragments and spores of V. inaequalis grown on malt agar and added to the broth to provide 5×10^4 propagules/ml broth. Petri dishes are incubated at 20° C. for 10 days until the assessment of mycelial growth. The extent of disease control in all the above tests is expressed as a rating compared with either an untreated control or a diluent-sprayed-control, according to the criteria: […]

Leptosphaeria nodorum = experiment: Activity against wheat leafspot (LN); format: in vivo; conditions: direct therapeutic foliar spray, 600 ppm, 6-8 days
Protocol: (d) Activity against wheat leafspot (Leptosphaeria nodorum; LN.) The test is a direct therapeutic foliar spray. Leaves of wheat plants (cv Norman), at the single leaf stage, are inoculated by spraying with an aqueous suspension containing 1.5×10^6 conidia/ml. The inoculated plants are kept for 24 hours in a high humidity compartment prior to treatment. The plants are sprayed with a solution of the test compound at a dosage of 600 ppm using an automated sprayline as described under (a). After drying, the plants are kept for 6-8 days at 22° C. and moderate humidity (70%). Assessment is based on the density of lesions per leaf compared with that on leaves of control plants. The extent of disease control in all the above tests is expressed as a rating compared with either an untreated control or a diluent-sprayed-control, according to the criteria: […]

Rhizoctonia solani = experiment: Activity against Rhizoctonia in-vitro (RSI); format: cell-based; conditions: 10 ppm, 10 days, 20° C., mycelial growth
Protocol: (i) Activity against Rhizoctonia in-vitro (Rhizoctonia solani: RSI) This test measures the in-vitro activity of compounds against R. solani that causes stem and root rots. The test compound in acetone is added into 4 ml aliquots of half strength Potato Dextrose Broth dispensed in 25-compartment petri dishes to give final concentrations of 10 ppm. The fungal inoculum consists of mycelial fragments of R. solani growth in half strength PDB in shaken culture flasks and added to the broth to provide 5×10^4 fragments/ml broth. Petri dishes are incubated at 20° C. for 10 days until the assessment of mycelial growth. The extent of disease control in all the above tests is expressed as a rating compared with either an untreated control or a diluent-sprayed-control, according to the criteria: […]

Phytophthora infestans = format: in vivo; conditions: tomato, direct protectant foliar spray
Alternaria solani = experiment: Activity against tomato early blight (AS); format: in vivo; conditions: Table VI; tomato seedlings, contact prophylactic foliar spray, 4 days
Protocol: b) Activity against tomato early blight (Alternaria solani; AS) This test measures the contact prophylactic activity of test compounds applied as a foliar spray. Tomato seedlings (cv Outdoor Girl) are grown to the stage at which the second true leaf is expanded. The plants are treated using an automated sprayline as described under (a). Test compounds are applied as solutions or suspensions in a mixture of acetone and water (50:50 v/v) containing 0.04% surfactant ("TWEEN 20"--Trade Mark). After drying the plants are kept for 24 hours in a glasshouse at 20° C. and 40% R.H., followed by inoculation of the leaf upper surfaces with a suspension of A. solani conidia containing 10^4 spores/ml. For 4 days after inoculation plants are kept moist in a humidity compartment at 21° C. Disease is assessed 4 days after inoculation, based on the percentage of leaf surface area covered by lesions when compared with control plants. The extent of disease control in all the above tests is expressed as a rating compared with either an untreated control or a diluent-sprayed-control, according to the criteria: […]

Botrytis cinerea = experiment: Direct protectant activity against broad bean grey mould (BCB); format: in vivo; conditions: direct protectant foliar spray, 600 ppm, 4 days
Protocol: (c) Direct protectant activity against broad bean grey mould (Botrytis cinerea; BCB) The test is a direct protectant foliar spray. The upper surfaces of leaves of broad bean plants with two leaf pairs (cv The Sutton) are sprayed with the test compound at a dosage of 600 ppm using an automated sprayline as described under (a). 24 hours after spraying the leaves are inoculated with an aqueous suspension containing 10^6 conidia/ml. For 4 days after inoculation plants are kept in a high humidity compartment at 22° C. Disease is assessed 4 days after inoculation, based on the percentage of leaf surface area covered by lesions. The extent of disease control in all the above tests is expressed as a rating compared with either an untreated control or a diluent-sprayed-control, according to the criteria: […]

Plasmopara viticola = experiment: Antisporulant activity against vine downy mildew (PVA); format: in vivo; conditions: vine leaves, antisporulant foliar spray, 600 ppm, 750 l/ha
Protocol: (a) Antisporulant activity against vine downy mildew (Plasmopara viticola; PVA) The test is a direct antisporulant one using a foliar spray. The lower surfaces of leaves of whole vine plants (cv Cabernet Sauvignon), approximately 8 cm high, are inoculated by spraying with an aqueous suspension containing 5×10^4 zoosporangia/ml. The inoculated plants are kept for 24 hours at 21° C. in a high humidity compartment, then 24 hours at glasshouse ambient temperature and humidity. Infected leaves are sprayed on their lower surfaces with a solution of active material in 1:1 water/acetone containing 0.04% "TWEEN 20" (Trade Mark; a polyoxyethylene sorbitan ester surfactant). Plants are treated using an automated sprayline with an atomising nozzle. The concentration of the compound is 600 ppm, and the spray volume is 750 l/ha. After spraying, the plants are returned to normal glasshouse conditions for 96 hours and are then transferred to the high humidity compartment for 24 hours to induce sporulation. Assessment is based on the percentage of the leaf area covered by sporulation compared with that on control leaves. The extent of disease control in all the above tests is expressed as a rating compared with either an untreated control or a diluent-sprayed-control, according to the criteria: […]

Pyricularia oryzae = format: in vivo; conditions: rice seedlings, direct therapeutic foliar spray, 600 ppm, 4-5 days
[1] = system: Erysiphe graminis f.sp. hordei; experiment: Direct protectant activity against barley powdery mildew (EGP); format: in vivo; conditions: direct protectant foliar spray, 8 days
Protocol: (f) Direct protectant activity against barley powdery mildew (Erysiphe graminis f.sp. hordei; EGP) The test is a direct protectant foliar spray. Leaves of barley seedlings (cv Golden Promise) at the single leaf stage are sprayed with the test compound as described under (a). After drying, the plants are kept for 24 hours in a glasshouse at 18° C. and 40% R.H. Then the plants are inoculated by dusting with mildew conidia and kept at 18° C. and 40% R.H. for 8 days. Assessment is based on the percentage of leaf area covered by sporulation compared with that on leaves of control plants. The extent of disease control in all the above tests is expressed as a rating compared with either an untreated control or a diluent-sprayed-control, according to the criteria: […]

[2] = system: Pseudocercosporella herpotrichoides; experiment: Activity against wheat eyespot in-vitro (PHI); format: cell-based; conditions: 10 ppm, 10 days, 20° C., mycelial growth
Protocol: (h) Activity against wheat eyespot in-vitro (Pseudocercosporella herpotrichoides; pHI) This test measures the in vitro activity of compounds against the fungus causing wheat eyespot. The test compound is dissolved or suspended in acetone and is added into 4 ml aliquots of half strength Potato Dextrose Broth (PDB) dispended in 25-compartment petri dishes to give a final concentration of 10ppm. The fungal inoculum consists of mycelial fragments of P. herpotrichoides grown in half strength PDB in shaken flasks and added to the broth to provide 5×10^4 fragments/ml broth. Petri dishes are incubated at 20° C. for 10 days until the assessment of mycelial growth. The extent of disease control in all the above tests is expressed as a rating compared with either an untreated control or a diluent-sprayed-control, according to the criteria: […]

[3] = system: Erysiphe graminis f.sp. hordei; experiment: Activity against barley powdery mildew, direct therapeutic (EGT); format: in vivo; conditions: direct therapeutic foliar spray, 600 ppm, up to 7 days
Protocol: (e) Activity against barley powdery mildew (Erysiphe graminis f.sp. hordei; EGT) The test is a direct therapeutic foliar spray. Leaves of barley seedlings, (cv. Golden Promise) at the single leaf stage are inoculated by dusting with mildew conidia one day prior to treatment with the test compound. The inoculated plants are kept overnight at glasshouse ambient temperature (18° C.) and humidity (40%) prior to treatment. The plants are sprayed with the test compound at a dosage of 600 ppm using an automated sprayline as described under (a). After drying, plants are returned to a compartment at 18° C. and 40% humidity for up to 7 days. Assessment is based on the percentage of leaf area covered by sporulation compared with that on leaves of control plants. The extent of disease control in all the above tests is expressed as a rating compared with either an untreated control or a diluent-sprayed-control, according to the criteria: […]

**Q.** Which results are given for `CCCCCN(C(C)C)C1COC2(CCC(C(C)(C)C)CC2)C1` (stereo not shown) [Compound 76]?
**A.** disease control rating VII (Venturia inaequalis): 0 (less than 50% disease control); disease control rating LN (Leptosphaeria nodorum): 0 (less than 50% disease control); disease control rating RSI (Rhizoctonia solani): 0 (less than 50% disease control); disease control rating PIP (Phytophthora infestans): 0 (less than 50% disease control); disease control rating AS (Alternaria solani): 0 (less than 50% disease control); disease control rating BCB (Botrytis cinerea): 0 (less than 50% disease control); disease control rating PVA (Plasmopara viticola): 0 (less than 50% disease control); disease control rating PO (Pyricularia oryzae): 0 (less than 50% disease control); disease control rating EGP [1]: 2 (greater than 80% disease control); disease control rating PHI [2]: 0 (less than 50% disease control); disease control rating EGT [3]: 2 (greater than 80% disease control)

**Q.** Which “disease control rating VII” value (Venturia inaequalis) does the source give for `CC(=CC(=O)CC(C)C)NC1COC2(CCC(C(C)(C)C)CC2)C1` (stereo not shown) [Compound 124] here?
**A.** The value was 0 (less than 50% disease control).

**Q.** And the “disease control rating LN” value (Leptosphaeria nodorum)?
**A.** The value was 0 (less than 50% disease control).

**Q.** And the “disease control rating RSI” value (Rhizoctonia solani)?
**A.** Its value is 0 (less than 50% disease control).

**Q.** And the “disease control rating PIP” value (Phytophthora infestans)?
**A.** The value was 2 (greater than 80% disease control).

**Q.** And the “disease control rating AS” value (Alternaria solani)?
**A.** The value was 0 (less than 50% disease control).

**Q.** What about the “disease control rating BCB” value (Botrytis cinerea) of the same molecule?
**A.** Its value is 0 (less than 50% disease control).

**Q.** What about the “disease control rating PVA” value (Plasmopara viticola) of the same molecule?
**A.** Its value is 0 (less than 50% disease control).

**Q.** What about the “disease control rating PO” value (Pyricularia oryzae) of the same molecule?
**A.** Its value is 0 (less than 50% disease control).

**Q.** What about the “disease control rating EGP” value [1] of the same molecule?
**A.** Its value is 2 (greater than 80% disease control).

**Q.** And the “disease control rating PHI” value [2]?
**A.** The value was 0 (less than 50% disease control).

**Q.** What about the “disease control rating EGT” value [3] of the same molecule?
**A.** Its value is 2 (greater than 80% disease control).

**Q.** What does the source list for `CC1CCN(C2COC3(CCC(C(C)(C)C)CC3)C2)CC1` (stereo not shown) [Compound 19]?
**A.** disease control rating VII (Venturia inaequalis): 1 (about 50-80% disease control); disease control rating LN (Leptosphaeria nodorum): 1 (about 50-80% disease control); disease control rating RSI (Rhizoctonia solani): 0 (less than 50% disease control); disease control rating PIP (Phytophthora infestans): 0 (less than 50% disease control); disease control rating AS (Alternaria solani): 0 (less than 50% disease control); disease control rating BCB (Botrytis cinerea): 0 (less than 50% disease control); disease control rating PVA (Plasmopara viticola): 0 (less than 50% disease control); disease control rating PO (Pyricularia oryzae): 0 (less than 50% disease control); disease control rating EGP [1]: 2 (greater than 80% disease control); disease control rating PHI [2]: 0 (less than 50% disease control); disease control rating EGT [3]: 2 (greater than 80% disease control)

**Q.** `CCCCCCC(C)NC1COC2(CCC(C(C)(C)C)CC2)C1` (stereo not shown) [Compound 105] was tested. Which “disease control rating VII” value (Venturia inaequalis) did it give?
**A.** The value was 2 (greater than 80% disease control).

**Q.** What about the “disease control rating LN” value (Leptosphaeria nodorum) of the same molecule?
**A.** Its value is 1 (about 50-80% disease control).

**Q.** And the “disease control rating RSI” value (Rhizoctonia solani)?
**A.** The value was 2 (greater than 80% disease control).

**Q.** What about the “disease control rating PIP” value (Phytophthora infestans) of the same molecule?
**A.** The value was 0 (less than 50% disease control).

**Q.** And the “disease control rating AS” value (Alternaria solani)?
**A.** Its value is 0 (less than 50% disease control).

**Q.** And the “disease control rating BCB” value (Botrytis cinerea)?
**A.** Its value is 1 (about 50-80% disease control).

**Q.** What about the “disease control rating PVA” value (Plasmopara viticola) of the same molecule?
**A.** Its value is 0 (less than 50% disease control).

**Q.** What about the “disease control rating PO” value (Pyricularia oryzae) of the same molecule?
**A.** Its value is 0 (less than 50% disease control).

**Q.** And the “disease control rating EGP” value [1]?
**A.** The value was 2 (greater than 80% disease control).

**Q.** What about the “disease control rating PHI” value [2] of the same molecule?
**A.** Its value is 2 (greater than 80% disease control).

**Q.** What about the “disease control rating EGT” value [3] of the same molecule?
**A.** Its value is 2 (greater than 80% disease control).

**Q.** For `CCCCCCCCCCCCCCCCNC1COC2(CCC(C(C)(C)C)CC2)C1` (stereo not shown) [Compound 45], which “disease control rating VII” value (Venturia inaequalis) is on record?
**A.** The value was 0 (less than 50% disease control).

**Q.** What about the “disease control rating LN” value (Leptosphaeria nodorum) of the same molecule?
**A.** Its value is 0 (less than 50% disease control).

**Q.** And the “disease control rating RSI” value (Rhizoctonia solani)?
**A.** The value was 0 (less than 50% disease control).

**Q.** What about the “disease control rating PIP” value (Phytophthora infestans) of the same molecule?
**A.** Its value is 0 (less than 50% disease control).

**Q.** What about the “disease control rating AS” value (Alternaria solani) of the same molecule?
**A.** The value was 0 (less than 50% disease control).

**Q.** What about the “disease control rating BCB” value (Botrytis cinerea) of the same molecule?
**A.** The value was 0 (less than 50% disease control).

**Q.** What about the “disease control rating PVA” value (Plasmopara viticola) of the same molecule?
**A.** Its value is 0 (less than 50% disease control).

**Q.** What about the “disease control rating PO” value (Pyricularia oryzae) of the same molecule?
**A.** Its value is 0 (less than 50% disease control).

**Q.** What about the “disease control rating EGP” value [1] of the same molecule?
**A.** Its value is 2 (greater than 80% disease control).

**Q.** What about the “disease control rating PHI” value [2] of the same molecule?
**A.** Its value is 0 (less than 50% disease control).

**Q.** What about the “disease control rating EGT” value [3] of the same molecule?
**A.** Its value is 2 (greater than 80% disease control).
